# Reference: US9193731B2, “Antimicrobial compounds and methods of making and using the same” (Melinta Therapeutics, Inc., priority 2009, dated 2015)
# System: Escherichia coli strain ATCC25922
# Experiment: standard microdilution assay to determine minimum inhibitory concentrations (MICs)
# Assay type: cell-based
# Conditions: Escherichia coli strain ATCC25922, microdilution
# Method in brief: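 Broth microdilution MIC against E. coli ATCC25922, following CLSI protocols, typically in a 100 microliter final volume. Results reported as +/− relative to a 16 micrograms/ml cutoff.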
row,SMILES,E. coli ATCC25922 MIC
1,N=C(N)NCCCNC(c1ccc(-n2cc3cc(-c4ccc(S(=O)(=O)NC5CCNCC5)cc4)[nH]c3nc2=O)cc1)C(F)(F)F (stereo not shown) [Compound 1015],+ (a “+” indicates that the compound has an MIC value of 16 micrograms/ml or less)
2,N=C(N)NCCCNC(=O)c1ccc(C2N=c3cc(-c4ccc(S(=O)(=O)N(CCCN5CCCCC5)C5CCNCC5)cc4)[nH]c3=NC2=O)cc1 (stereo not shown) [Compound 1017],+ (a “+” indicates that the compound has an MIC value of 16 micrograms/ml or less)
3,N=C(N)NCCCNCc1ccc(-n2cc3cc(-c4cccc(S(=O)(=O)N(CC5CC5)C5CCNCC5)c4)[nH]c3nc2=O)cc1 [Compound 1018],+ (a “+” indicates that the compound has an MIC value of 16 micrograms/ml or less)
4,N=C(N)NCCCNCc1ccc(-n2cc3cc(-c4ccc(S(=O)(=O)N(CCCC5CCCCN5)C5CCNCC5)cc4)[nH]c3nc2=O)cc1 (stereo not shown) [Compound 1019],+ (a “+” indicates that the compound has an MIC value of 16 micrograms/ml or less)
5,N=C(N)NCCCNCc1ccc(-n2cc3cc(-c4cc(C(=O)NC5CCNCC5)cc(N5CCNCC5)c4)[nH]c3nc2=O)cc1 [Compound 1023],+ (a “+” indicates that the compound has an MIC value of 16 micrograms/ml or less)
6,N=C(N)NCCCNCc1ccc(-n2cc3cc(-c4cccc(S(=O)(=O)N(CCCN5CCCCC5)C5CCNCC5)c4)[nH]c3nc2=O)cc1 [Compound 1027],+ (a “+” indicates that the compound has an MIC value of 16 micrograms/ml or less)
7,N=C(N)NCCCNCc1ccc(-n2cc3cc(-c4cc(C(=O)NCC5CCCO5)cc(N5CCNCC5)c4)[nH]c3nc2=O)cc1 (stereo not shown) [Compound 1029],+ (a “+” indicates that the compound has an MIC value of 16 micrograms/ml or less)
8,N=C(N)NCCCNCc1ccc(-n2cc3cc(-c4cc(CNCC(F)(F)F)cc(N5CCNCC5)c4)[nH]c3nc2=O)cc1 [Compound 1040],+ (a “+” indicates that the compound has an MIC value of 16 micrograms/ml or less)
9,N=C(N)NCCCNCc1ccc(-n2cc3cc(-c4cc(CNc5cc(F)cc(F)c5)cc(N5CCNCC5)c4)[nH]c3nc2=O)cc1 [Compound 1043],+ (a “+” indicates that the compound has an MIC value of 16 micrograms/ml or less)
10,N=C(N)NCCCNCc1ccc(-n2cc3cc(-c4cc(CNCCc5ccc(F)cc5)cc(N5CCNCC5)c4)[nH]c3nc2=O)cc1 [Compound 1044],+ (a “+” indicates that the compound has an MIC value of 16 micrograms/ml or less)
11,N=C(N)NCCCNCc1ccc(-n2cc3cc(-c4cc(C(=O)NC5CCC(F)(F)CC5)cc(N5CCNCC5)c4)[nH]c3nc2=O)cc1 [Compound 1045],+ (a “+” indicates that the compound has an MIC value of 16 micrograms/ml or less)
12,N=C(N)NCCCNCc1ccc(-n2cc3cc(-c4cccc(S(=O)(=O)N(CCCC5CCCC5)C5CCNCC5)c4)[nH]c3nc2=O)cc1 [Compound 1047],+ (a “+” indicates that the compound has an MIC value of 16 micrograms/ml or less)
13,N=C(N)NCCNC(=O)c1ccc(-n2cc3cc(-c4ccc(S(=O)(=O)NC5CCNCC5)cc4)[nH]c3nc2=O)cc1 [Compound 1048],+ (a “+” indicates that the compound has an MIC value of 16 micrograms/ml or less)
14,CN(Cc1cccc(F)c1)Cc1cc(-c2cc3cn(-c4ccc(CNCCCNC(=N)N)cc4)c(=O)nc3[nH]2)cc(N2CCNCC2)c1 [Compound 1049],+ (a “+” indicates that the compound has an MIC value of 16 micrograms/ml or less)
15,N=C(N)NCCCNCc1ccc(-n2cc3cc(-c4cc(CN5Cc6ccccc6C5)cc(N5CCNCC5)c4)[nH]c3nc2=O)cc1 [Compound 1050],+ (a “+” indicates that the compound has an MIC value of 16 micrograms/ml or less)
16,N=C(N)NCCCNCCCn1cc2cc(-c3ccc(S(=O)(=O)NC4CCNCC4)cc3)[nH]c2nc1=O [Compound 1059],+ (a “+” indicates that the compound has an MIC value of 16 micrograms/ml or less)
17,N=C(N)NCCCNCc1ccc(-n2cc3cc(-c4cc(CNc5ccc(F)cc5)cc(N5CCNCC5)c4)[nH]c3nc2=O)cc1 [Compound 1060],+ (a “+” indicates that the compound has an MIC value of 16 micrograms/ml or less)
18,N=C(N)NCCCNCc1ccc(-n2cc3cc(-c4cc(C(=O)Nc5nc(C(F)(F)F)cs5)cc(N5CCNCC5)c4)[nH]c3nc2=O)cc1 [Compound 1061],+ (a “+” indicates that the compound has an MIC value of 16 micrograms/ml or less)
19,CNCc1ccc(-n2cc3cc(-c4ccc(S(=O)(=O)N(CCCc5ccc(F)cc5)C5CCNCC5)cc4)[nH]c3nc2=O)cc1 [Compound 1062],− (a “−” indicates that the compound has an MIC value greater than 16 micrograms/ml)
20,CNCc1ccc(-n2cc3cc(-c4ccc(S(=O)(=O)N(CCCN5CCc6ccccc65)C5CCNCC5)cc4)[nH]c3nc2=O)cc1 [Compound 1063],− (a “−” indicates that the compound has an MIC value greater than 16 micrograms/ml)
21,CNCc1ccc(-n2cc3cc(-c4ccc(S(=O)(=O)N(CCCc5ccc(O)cc5)C5CCNCC5)cc4)[nH]c3nc2=O)cc1 [Compound 1064],− (a “−” indicates that the compound has an MIC value greater than 16 micrograms/ml)

# Same assay, conditions: Escherichia coli, ATCC25922, Escherichia coli strain ATCC25922, microdilution; read-out: E. coli ATCC25922 MIC
row,SMILES,MIC
1,CNCc1ccc(-n2cc3cc(-c4ccc(S(=O)(=O)N(CCCn5cccn5)C5CCNCC5)cc4)[nH]c3nc2=O)cc1 [Compound 1020],> 16 µg/mL
2,CNCc1ccc(-n2cc3cc(-c4ccc(S(=O)(=O)N(CCCn5ccc(C(F)(F)F)n5)C5CCNCC5)cc4)[nH]c3nc2=O)cc1 [Compound 1021],> 16 µg/mL
3,CNCc1ccc(-n2cc3cc(-c4ccc(S(=O)(=O)N(CCCc5cccc(OC)c5)C5CCNCC5)cc4)[nH]c3nc2=O)cc1 [Compound 1034],> 16 µg/mL
4,NCc1ccc(-n2cc3cc(-c4ccc(S(=O)(=O)N(CCCn5cccn5)C5CCNCC5)cc4)[nH]c3nc2=O)cc1 [Compound 1035],> 16 µg/mL
5,COc1cccc(CCCN(C2CCNCC2)S(=O)(=O)c2ccc(-c3cc4cn(-c5ccc(CN)cc5)c(=O)nc4[nH]3)cc2)c1 [Compound 1036],> 16 µg/mL
6,CNCc1ccc(-n2cc3cc(-c4ccc(S(=O)(=O)N(CCCN5CCOCC5)C5CCNCC5)cc4)[nH]c3nc2=O)cc1 [Compound 1037],> 16 µg/mL
7,NCc1ccc(-n2cc3cc(-c4ccc(S(=O)(=O)N(CCCN5CCOCC5)C5CCNCC5)cc4)[nH]c3nc2=O)cc1 [Compound 1038],> 16 µg/mL
8,CNCc1ccc(-n2cc3cc(-c4ccc(S(=O)(=O)N(CCCN5CCCCC5C)C5CCNCC5)cc4)[nH]c3nc2=O)cc1 (stereo not shown) [Compound 1039],> 16 µg/mL
9,CC1CCCCN1CCCN(C1CCNCC1)S(=O)(=O)c1ccc(-c2cc3cn(-c4ccc(CN)cc4)c(=O)nc3[nH]2)cc1 (stereo not shown) [Compound 1051],> 16 µg/mL
10,CNCc1ccc(-n2cc3cc(-c4ccc(S(=O)(=O)N(CCCC5CCCO5)C5CCNCC5)cc4)[nH]c3nc2=O)cc1 (stereo not shown) [Compound 1052],> 16 µg/mL
11,NCc1ccc(-n2cc3cc(-c4ccc(S(=O)(=O)N(CCCc5ccc(F)cc5)C5CCNCC5)cc4)[nH]c3nc2=O)cc1 [Compound 1053],> 16 µg/mL
12,CNCc1ccc(-n2cc3cc(-c4ccc(S(=O)(=O)N(CCCN5Cc6ccccc6C5)C5CCNCC5)cc4)[nH]c3nc2=O)cc1 [Compound 1054],> 16 µg/mL
13,NCc1ccc(-n2cc3cc(-c4ccc(S(=O)(=O)N(CCCN5Cc6ccccc6C5)C5CCNCC5)cc4)[nH]c3nc2=O)cc1 [Compound 1065],> 16 µg/mL
